Measurements: ChEMBL document CHEMBL1201862, “PubChem BioAssay data set” (2004)
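Test compounds were applied to cells in 96-well plates for 48 hours at 5 doses. At the GI50, growth is halved.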 The source made the active and inactive calls. Rule as the data show it: active = GI50 up to about 1.1 µM and inactive = higher.

Legend:
Assay in all cases: NCI-60 cell line screen, 48 h
OVCAR-3 = system: OVCAR-3
OVCAR-5 = system: OVCAR-5
COLO 205 = system: COLO 205
ACHN = system: ACHN
SN12C = system: SN12C
SF-539 = system: SF-539
Hs-578T = system: Hs-578T
NCI-H23 = system: NCI-H23
LOX IMVI = system: LOX IMVI
OVCAR-4 = system: OVCAR-4
TK-10 = system: TK-10
SK-MEL-5 = system: SK-MEL-5
UACC-257 = system: UACC-257
MOLT-4 = system: MOLT-4
SF-295 = system: SF-295
SK-MEL-28 = system: SK-MEL-28
M14 = system: M14
MDA-N = system: MDA-N
SK-OV-3 = system: SK-OV-3
HT-29 = system: HT-29
UACC-62 = system: UACC-62
IGROV-1 = system: IGROV-1
KM12 = system: KM12
UO-31 = system: UO-31
HCT-116 = system: HCT-116
PC-3 = system: PC-3
NCI-H226 = system: NCI-H226
CCRF-CEM = system: CCRF-CEM
SNB-19 = system: SNB-19
MCF7 = system: MCF7
Malme-3M = system: Malme-3M
SR = system: SR
T47D = system: T47D
K562 = system: K562
HOP-92 = system: HOP-92
OVCAR-8 = system: OVCAR-8
SF-268 = system: SF-268
HL-60 = system: HL-60
CAKI-1 = system: CAKI-1
HCT-15 = system: HCT-15
SK-MEL-2 = system: SK-MEL-2
SW-620 = system: SW-620
NCI-H460 = system: NCI-H460
EKVX = system: EKVX
786-0 = system: 786-0
HOP-62 = system: HOP-62
DU-145 = system: DU-145
MDA-MB-435 = system: MDA-MB-435
A549 = system: A549
MDA-MB-231 = system: MDA-MB-231
HCC 2998 = system: HCC 2998
NCI/ADR-RES = system: NCI/ADR-RES
RXF 393 = system: RXF 393
RPMI-8226 = system: RPMI-8226
U-251 = system: U-251
SNB-75 = system: SNB-75
A498 = system: A498
NCI-H522 = system: NCI-H522

SMILES: Oc1c(N2CCCCC2)cc(-c2cc(N3CCCCC3)c(O)c3ccccc23)c2ccccc12
- GI50 (OVCAR-3): 23.3 µM (inactive)
- GI50 (OVCAR-5): 72.4 µM (inactive)
- GI50 (COLO 205): 26.2 µM (inactive)
- GI50 (ACHN): 49.1 µM (inactive)
- GI50 (SN12C): 27.6 µM (inactive)
- GI50 (SF-539): 33.2 µM (inactive)
- GI50 (Hs-578T): 27.7 µM (inactive)
- GI50 (NCI-H23): 24.9 µM (inactive)
- GI50 (LOX IMVI): 25.1 µM (inactive)
- GI50 (OVCAR-4): 17.1 µM (inactive)
- GI50 (TK-10): > 100 µM (inactive)
- GI50 (SK-MEL-5): 17.5 µM (inactive)
- GI50 (UACC-257): 14.9 µM (inactive)
- GI50 (MOLT-4): 22.9 µM (inactive)
- GI50 (SF-295): 41.2 µM (inactive)
- GI50 (SK-MEL-28): 19.9 µM (inactive)
- GI50 (M14): 16.7 µM (inactive)
- GI50 (MDA-N): 17 µM (inactive)
- GI50 (SK-OV-3): > 100 µM (inactive)
- GI50 (HT-29): 23 µM (inactive)
- GI50 (UACC-62): 21.1 µM (inactive)
- GI50 (IGROV-1): 43.7 µM (inactive)
- GI50 (KM12): 64.1 µM (inactive)
- GI50 (UO-31): > 100 µM (inactive)
- GI50 (HCT-116): 19 µM (inactive)
- GI50 (PC-3): 31.3 µM (inactive)
- GI50 (NCI-H226): > 100 µM (inactive)
- GI50 (CCRF-CEM): 30.2 µM (inactive)
- GI50 (SNB-19): 98.4 µM (inactive)
- GI50 (MCF7): 22.9 µM (inactive)
- GI50 (Malme-3M): 12 µM (inactive)
- GI50 (SR): 0.368 µM (active)
- GI50 (T47D): 32.4 µM (inactive)
- GI50 (K562): 71.9 µM (inactive)
- GI50 (HOP-92): 23.4 µM (inactive)
- GI50 (OVCAR-8): 33 µM (inactive)
- GI50 (SF-268): 26 µM (inactive)
- GI50 (HL-60): 27.7 µM (inactive)
- GI50 (CAKI-1): > 100 µM (inactive)
- GI50 (HCT-15): 35.2 µM
- GI50 (SK-MEL-2): 25.2 µM (inactive)
- GI50 (SW-620): 29.3 µM (inactive)
- GI50 (NCI-H460): 43 µM (inactive)
- GI50 (EKVX): > 100 µM (inactive)
- GI50 (786-0): 22.3 µM (inactive)
- GI50 (HOP-62): 32.1 µM (inactive)
- GI50 (DU-145): 23.4 µM (inactive)
- GI50 (MDA-MB-435): 4.24 µM (inactive)
- GI50 (A549): 39.3 µM (inactive)
- GI50 (MDA-MB-231): 39.8 µM (inactive)
- GI50 (HCC 2998): 33.5 µM (inactive)
- GI50 (NCI/ADR-RES): 34.2 µM (inactive)
- GI50 (RXF 393): 20.4 µM (inactive)
- GI50 (RPMI-8226): 29.6 µM (inactive)
- GI50 (U-251): 35.2 µM (inactive)

SMILES: COc1ccc(C(OCC2OC(n3ccc(NC(=O)c4ccccc4)nc3=O)C(O)C2O)(c2ccccc2)c2ccccc2)cc1 (stereo not given)
- GI50 (OVCAR-3): 1.69 µM (inactive)
- GI50 (OVCAR-5): 2 µM (inactive)
- GI50 (COLO 205): 2 µM (inactive)
- GI50 (ACHN): 2.9 µM (inactive)
- GI50 (SN12C): 1.82 µM (inactive)
- GI50 (SF-539): 2.34 µM (inactive)
- GI50 (Hs-578T): 2.12 µM (inactive)
- GI50 (NCI-H23): 1.32 µM (inactive)
- GI50 (OVCAR-4): 2.67 µM (inactive)
- GI50 (SK-MEL-5): 1.91 µM (inactive)
- GI50 (UACC-257): 8.39 µM (inactive)
- GI50 (MOLT-4): 2.1 µM (inactive)
- GI50 (SF-295): 1.95 µM (inactive)
- GI50 (SK-MEL-28): 2.72 µM (inactive)
- GI50 (M14): 2.03 µM (inactive)
- GI50 (MDA-N): 1.92 µM (inactive)
- GI50 (SK-OV-3): 7.28 µM (inactive)
- GI50 (HT-29): 1.53 µM (inactive)
- GI50 (UACC-62): 8.26 µM (inactive)
- GI50 (IGROV-1): 2.08 µM (inactive)
- GI50 (SNB-75): 9.55 µM (inactive)
- GI50 (KM12): 21.1 µM (inactive)
- GI50 (UO-31): 3.42 µM (inactive)
- GI50 (HCT-116): 1.75 µM (inactive)
- GI50 (PC-3): 3.09 µM (inactive)
- GI50 (NCI-H226): 2.61 µM (inactive)
- GI50 (CCRF-CEM): 2.26 µM (inactive)
- GI50 (SNB-19): 3.44 µM (inactive)
- GI50 (MCF7): 2.22 µM (inactive)
- GI50 (Malme-3M): 1.89 µM (inactive)
- GI50 (SR): 2.39 µM (inactive)
- GI50 (T47D): 3.54 µM (inactive)
- GI50 (K562): 2.38 µM (inactive)
- GI50 (A498): 1.62 µM (inactive)
- GI50 (OVCAR-8): 1.78 µM (inactive)
- GI50 (SF-268): 5.18 µM (inactive)
- GI50 (HL-60): 2.24 µM (inactive)
- GI50 (CAKI-1): 2.93 µM (inactive)
- GI50 (HCT-15): 1.82 µM
- GI50 (SK-MEL-2): 3.33 µM (inactive)
- GI50 (SW-620): 3.13 µM (inactive)
- GI50 (NCI-H460): 1.98 µM (inactive)
- GI50 (EKVX): 2.72 µM (inactive)
- GI50 (786-0): 2.12 µM (inactive)
- GI50 (HOP-62): 2.34 µM (inactive)
- GI50 (DU-145): 3.37 µM (inactive)
- GI50 (MDA-MB-435): 2.63 µM (inactive)
- GI50 (A549): 4.06 µM (inactive)
- GI50 (MDA-MB-231): 2.13 µM (inactive)
- GI50 (HCC 2998): 3.4 µM (inactive)
- GI50 (NCI/ADR-RES): 2.37 µM (inactive)
- GI50 (RXF 393): 2.97 µM (inactive)
- GI50 (RPMI-8226): 2.42 µM (inactive)
- GI50 (NCI-H522): 2.48 µM (inactive)
- GI50 (U-251): 1.92 µM (inactive)

SMILES: COC1(OC)c2no[n+]([O-])c2C(OC)(OC)c2c1no[n+]2[O-]
- GI50 (OVCAR-3): 7.85 µM (inactive)
- GI50 (OVCAR-5): 21.3 µM (inactive)
- GI50 (COLO 205): 12.9 µM (inactive)
- GI50 (ACHN): 19.5 µM (inactive)
- GI50 (SN12C): 20.4 µM (inactive)
- GI50 (SF-539): 18.3 µM (inactive)
- GI50 (Hs-578T): 31.4 µM (inactive)
- GI50 (NCI-H23): 11.4 µM (inactive)
- GI50 (LOX IMVI): 14.9 µM (inactive)
- GI50 (OVCAR-4): 21.9 µM (inactive)
- GI50 (TK-10): 16.1 µM (inactive)
- GI50 (SK-MEL-5): 14.9 µM (inactive)
- GI50 (UACC-257): 12.5 µM (inactive)
- GI50 (MOLT-4): 12.4 µM (inactive)
- GI50 (SF-295): 35.7 µM (inactive)
- GI50 (SK-MEL-28): 15.7 µM (inactive)
- GI50 (M14): 12.3 µM (inactive)
- GI50 (MDA-N): 19.6 µM (inactive)
- GI50 (HT-29): 17.3 µM (inactive)
- GI50 (UACC-62): 11.2 µM (inactive)
- GI50 (IGROV-1): 21.7 µM (inactive)
- GI50 (SNB-75): 18.3 µM (inactive)
- GI50 (KM12): 11.7 µM (inactive)
- GI50 (UO-31): 28.2 µM (inactive)
- GI50 (HCT-116): 11.1 µM (inactive)
- GI50 (PC-3): 25.3 µM (inactive)
- GI50 (NCI-H226): 24.5 µM (inactive)
- GI50 (CCRF-CEM): 4.19 µM (inactive)
- GI50 (SNB-19): 24.5 µM (inactive)
- GI50 (MCF7): 14.1 µM (inactive)
- GI50 (Malme-3M): 14.4 µM (inactive)
- GI50 (SR): 4.38 µM (inactive)
- GI50 (T47D): 21.8 µM (inactive)
- GI50 (K562): 38.9 µM (inactive)
- GI50 (A498): 19.1 µM (inactive)
- GI50 (OVCAR-8): 13.4 µM (inactive)
- GI50 (SF-268): 25.7 µM (inactive)
- GI50 (HL-60): 37.3 µM (inactive)
- GI50 (CAKI-1): 37.8 µM (inactive)
- GI50 (HCT-15): 22 µM
- GI50 (SK-MEL-2): 21.1 µM (inactive)
- GI50 (SW-620): 17.9 µM (inactive)
- GI50 (NCI-H460): 26.7 µM (inactive)
- GI50 (EKVX): 14.7 µM (inactive)
- GI50 (786-0): 18.5 µM (inactive)
- GI50 (HOP-62): 18.4 µM (inactive)
- GI50 (DU-145): 28.3 µM (inactive)
- GI50 (MDA-MB-435): 17.3 µM (inactive)
- GI50 (A549): 23.6 µM (inactive)
- GI50 (MDA-MB-231): 16.4 µM (inactive)
- GI50 (HCC 2998): 21 µM (inactive)
- GI50 (NCI/ADR-RES): 26.6 µM (inactive)
- GI50 (RXF 393): 26.1 µM (inactive)
- GI50 (RPMI-8226): 35.6 µM (inactive)
- GI50 (NCI-H522): 21.7 µM (inactive)
